According to US8163795B2, “Chroman derivatives, medicaments and use in therapy” (Marshall Edwards, Inc., priority 2004, dated 2012):
“And” between values parts separate entries of the source, which are not always exact repeats. Equal entries are not always repeated. Where two headings read alike, the source gives them in different places.

Key:
[1] = test system: IGR3 melanoma cells (Trail-resistant); assay: Apoptosis incidence in melanoma cells; assay type: cell-based
MM200 melanoma cell line = assay: HMC combination with topotecan (synergy); assay type: cell-based; settings: for IC50: Table 11, single agent; for Change Factor (Combined): 5-day combination
Procedure: IC50 values were determined for each cell line. Cells were seeded in 96-well plates at an appropriate cell density as determined from growth kinetics analysis and cultured for 5 days in the absence and presence of the test compounds. […] IC50 values were calculated from semi-log plots of % of control proliferation on the y-axis against log dose on the x-axis.
3-D model analysis of the cytotoxic interaction between drug A and drug B enables the representation of predicted inhibitory effect of two drugs in combination in 3 dimensions to reveal actual regions of synergy or antagonism. […] Theoretical Additivity was calculated from the cytotoxicities of drug A and drug B as monotherapies using the following formula which assumes the drugs are mutually exclusive inhibitors: […]
HMC synergy with topotecan was assessed either in combination over 5 days exposure or in sequence (HMC→topotecan) against the MM200 melanoma cell line.

cancer cell lines = assay: Proliferation assays, statements over several cancer cell lines; assay type: cell-based; settings: SKOV-3, PC3, MCF-7, MDA-MB-468, HTB-138, HPAC, large cell lung cancer
Procedure: IC50 values were determined for each cell line. Cells were seeded in 96-well plates at an appropriate cell density as determined from growth kinetics analysis and cultured for 5 days in the absence and presence of the test compounds. Cell proliferation was assessed after the addition of 20 μl of 3-4,5 dimethylthiazol-2,5-diphenyl tetrazolium bromide (MTT, 2.5 mg/ml in PBS, Sigma) for 3-4 hrs at 37° C. according to manufacturer's instructions. IC50 values were calculated from semi-log plots of % of control proliferation on the y-axis against log dose on the x-axis.

[2] = test system: HPAC (CRL-2119) pancreatic cancer cell line; assay: Proliferation assay (MTT); assay type: cell-based, human; settings: Homo sapiens, HPAC, read-out: IC50
[3] = Toxicity in HPAC tumour bearing mice (weight, histopathology, serum biochemistry); assay type: in vivo, Athymic nu/nu BALB/c mice
Excerpt: Subconfluent (80%) flasks of HPAC cells were trypsinised, washed in Hanks balanced salt solution (Sigma), resuspended in dubellco's minimal essential medium (Sigma) and an equal volume of Matrigel™ (Becton Dickson) at a density of 3.7×10^7 cells per ml. Athymic nu/nu BALB/c mice were s.c. inoculated with 3.7×10^6 HPAC cells bi-laterally midway along the dorsal surface. For the HMC (n=3 per dosage regimen) and control groups (n=2), treatment commenced five days post inoculation to allow tumour formation. HMC was formulated 20% HPBCD and delivered i.p. daily for 15 days. The control group received equivalent (weight:weight) i.p. doses of 20% HPBCD. Tumour measurements commenced on day 5 post inoculation (10×10 mm^2) and were measured in 2 dimensions, length (a) and width (b), using calipers. Tumor weight (W) was calculated by the formula W=ab2/2, where a, is the longer of the 2 measurements (Odwyer et al., 1994). Tumour proliferation curves were analyzed with respect to maximal tumour inhibition (treated/control, TIC). On sacrifice, liver, kidney, femur, stomach and colon tissue were fixed in buffered formalin, embedded in paraffin, sections cut and stained with H&E. Stained sections were then submitted to Rothwell consulting for histopathology analysis. Serum biochemistry was conducted on bloods taken from control, vehicle control and HMC treatment groups. Serum analysis was conducted by Veterinary Clinical pathology (U. Syd).
Histopathological examination of haematoxylin and eosin-stained sections cut from formalin-fixed tissues from two series of experimental mice was made. The liver, kidney, stomach and colon were examined for evidence of toxic damage, the spleen and bone marrow for evidence of myelosuppression and the tumour for degree of necrosis. A score of 0-5 was allocated to each tumour specimen for the degree of necrosis present, a 0 score representing, no necrosis and a score of 5, total necrosis. The sections were scored ‘blind’ on two separate occasions and the final score given in the results is the mean of these two scores.
Alakalines phosphatase (ALP), alanine transferase (ALT) and creatine (Cre) were assessed in HMC treated vs control animals. ALP and Cre levels were similar to control and fell within normal ranges (for rat) however, ALT levels in vehicle control and HMC treated groups were much lower than no treatment control levels.

[4] = HMC pharmacokinetics i.v. and i.p., mice; assay type: in vivo, female BALB/c mice; settings: for concentration at 0.25 hr / concentration at 0.5 h / concentration at 4 hr / concentration at 24 hr / concentration at 1 hr: female, BALB/c, mouse, serum, 50 mg/kg; for concentration at 0.25 hr: 50 mg/kg in 20% HPBCD; for concentration at 0.5 h: 0.50 hr
Procedure: HMC was prepared as a solution in 20% hydroxypropyl-beta-cyclodextrin (m:v, water). […] Three animals were allocated to each timepoint (15 min, 30 min, 1 hr, 4 hr and 24 hr). At each respective timepoint, animals were euthanased by cervical dislocation and blood collected. Urine was also collected and analysed for HMC. Free HMC was analysed by mass spectroscopy.

[5] = individual HMC treated mice, 100 mg/kg, listed as HMC

Question: Which “Percent Apoptosis” value ([1]; 24 hr exposure, 1 uM) does the source give for `COc1ccc(C2c3ccc(O)cc3OCC2c2ccc(O)cc2)cc1` (stereo not drawn) [Compound 1, 3-(4-hydroxyphenyl)-4-(4-methoxyphenyl)chroman-7-ol] here?
Answer: Its value is 8%.

Question: And the “Percent Apoptosis” value ([1]; 24 hr exposure, 2 uM)?
Answer: Its value is 11%.

Question: And the “Percent Apoptosis” value ([1]; 24 hr exposure, 4 uM)?
Answer: Its value is 39%.

Question: What about the “Percent Apoptosis” value ([1]; 24 hr exposure, 8 uM) of the same compound?
Answer: Its value is 41%.

Question: And the “Percent Apoptosis” value ([1]; 24 hr exposure, 20 uM)?
Answer: Its value is 32%.

Question: What about the “Percent Apoptosis” value ([1]; 48 hr exposure, 1 uM) of the same compound?
Answer: The value was 1%.

Question: And the “Percent Apoptosis” value ([1]; 48 hr exposure, 2 uM)?
Answer: Its value is 9%.

Question: What about the “Percent Apoptosis” value ([1]; 48 hr exposure, 4 uM) of the same compound?
Answer: The value was 21%.

Question: And the “Percent Apoptosis” value ([1]; 48 hr exposure, 8 uM)?
Answer: The value was 38%.

Question: What about the “Percent Apoptosis” value ([1]; 48 hr exposure, 20 uM) of the same compound?
Answer: Its value is 38%.

Question: And the IC50 (MM200 melanoma cell line; 120 h, 5 days exposure, read-out: IC50, Combined (monotherapy))?
Answer: The IC50 was 0.702 µM.

Question: What about the “chemosensitisation of MM200 cells to topotecan (change in IC50)” value (MM200 melanoma cell line; HMC 2 μM, HMC→topotecan sequence) of the same compound?
Answer: Its value is greater than 1000 fold.

Question: What about the IC50 (MM200 melanoma cell line; 24 hr exposure, read-out: IC50, 24 hr (monotherapy)) of the same compound?
Answer: The IC50 was 18 µM.

Question: What about the “Change Factor (HMC first)” value (MM200 melanoma cell line; Topotecan block, HMC 1 uM 24 hr then topotecan 24 hr) of the same compound?
Answer: Its value is 50.656.

Question: And the “Change Factor (Combined)” value (MM200 melanoma cell line; Topotecan block, with HMC 1 uM)?
Answer: Its value is “?HMC effect”.

Question: What about the “Change Factor (Combined)” value (MM200 melanoma cell line; Topotecan block, with HMC 2 uM) of the same compound?
Answer: Its value is “?HCM effect”.

Question: And the “Change Factor (HMC first)” value (MM200 melanoma cell line; upper block of Table 11, HMC 2 uM first, sequence)?
Answer: The value was greater than 1000.

Question: What about the “Change Factor (Combined)” value (MM200 melanoma cell line; upper block of Table 11, HMC 2 uM) of the same compound?
Answer: The value was “?HMC effect”.

Question: What about the “activity compared to DHE IC50 values” (cancer cell lines) of the same compound?
Answer: The value was 5-10 fold.

Question: What about the IC50 ([2]; Table 2.1, Pancreatic CRL-2119) of the same compound?
Answer: The IC50 was 14.1 ± 1.16 µM.

Question: And the IC50 ([2]; Table 2.2, Pancreatic HPAC)?
Answer: The IC50 was 2.8 ± 0.9 µM.

Question: What about the “toxicity as determined by weight loss” value ([3]; 100 mg/kg daily for 15 days) of the same compound?
Answer: Its value is “no signs of toxicity”.

Question: And the “toxicity to major organs by histopathology” value ([3]; 100 mg/kg to mice)?
Answer: The value was “not toxic to major organs”.

Question: What about the “ALP (serum)” value [3, 5] of the same compound?
Answer: Its value is 111 U/L and 100 U/L and 74 U/L.

Question: And the “ALT (serum)” value [3, 5]?
Answer: The value was 482 U/L and 494 U/L and 505 U/L.

Question: And the “Cre (serum)” value [3, 5]?
Answer: Its value is 8 uM (2×) and 17 uM.

Question: What about the “Urea (serum)” value [3, 5] of the same compound?
Answer: Its value is 8.11 mM and 7.79 mM and 7.27 mM.

Question: What about the “free HMC in urine” value ([4]; 0.5 hr) of the same compound?
Answer: Its value is 3.3 mM.

Question: And the “free HMC in urine” value ([4]; 1 hr)?
Answer: The value was 3.9 mM.

Question: What about the “serum concentration i.p. vs i.v.” value ([4]; 1 hr post administration) of the same compound?
Answer: Its value is roughly 4.5 fold.

Question: What about the “free HMC in urine” value ([4]; 4 hr) of the same compound?
Answer: Its value is 0.093 mM.

Question: What about the concentration at 0.25 hr ([4]; ip) of the same compound?
Answer: The concentration at 0.25 hr was 131 µM.

Question: And the concentration at 0.5 h ([4]; ip)?
Answer: The concentration at 0.5 h was 31.8 µM.

Question: What about the concentration at 4 hr ([4]; ip, 4 hr) of the same compound?
Answer: The concentration at 4 hr was 0.15 µM.

Question: And the concentration at 24 hr ([4]; ip)?
Answer: Its concentration at 24 hr is 0.17 µM.

Question: What about the concentration at 1 hr ([4]; ip, i.p., 1 hr post administration, read-out: serum concentration) of the same compound?
Answer: The concentration at 1 hr was 18.7 µM.

Question: And the concentration at 1 hr ([4]; ip, ip, 1 hr, read-out: Serum HMC)?
Answer: The concentration at 1 hr was 18.7 µM.

Question: What about the concentration at 0.25 hr ([4]; iv) of the same compound?
Answer: Its concentration at 0.25 hr is 1070 µM.

Question: And the concentration at 0.5 h ([4]; iv)?
Answer: The concentration at 0.5 h was 199 µM.

Question: And the concentration at 4 hr ([4]; iv, 4 hr)?
Answer: Its concentration at 4 hr is 0.07 µM.

Question: What about the concentration at 24 hr ([4]; iv) of the same compound?
Answer: Its concentration at 24 hr is 0.05 µM.

Question: What about the concentration at 1 hr ([4]; iv, i.v., 1 hr post administration, read-out: serum concentration) of the same compound?
Answer: The concentration at 1 hr was 3.98 µM.

Question: And the concentration at 1 hr ([4]; iv, iv, 1 hr, read-out: Serum HMC)?
Answer: The concentration at 1 hr was 3.98 µM.

Question: And the HMC in plasma ([4]; i.p. administration, up to 1 hour post administration)?
Answer: Its HMC in plasma is 131 µM.

Question: And the elimination kinetics ([4]; i.p., hours 1-4 post administration)?
Answer: Its elimination kinetics is 4.6 µM/h.

Question: What about the elimination kinetics ([4]; i.p., up to 1 hour post administration) of the same compound?
Answer: Its elimination kinetics is 112 µM/h.

Question: What about the HMC in plasma ([4]; i.v. administration, up to 1 hour post administration) of the same compound?
Answer: The HMC in plasma was 1069 µM.

Question: And the “level of HMC in blood” value ([4]; i.v. in HPBCD, 15 min post administration)?
Answer: The value was 1000 µM.

Question: And the “rate of excretion from blood” value ([4]; i.v., first hr post administration)?
Answer: Its value is roughly 1000 µM/h.

Question: What about the “rate of excretion from blood” value ([4]; i.v., hours 1-4 post administration, assuming linear excretion) of the same compound?
Answer: The value was 0.97 µM/h.

Question: And the “serum concentration of free HMC i.p. vs orally delivered HMC” value ([4]; mice)?
Answer: The value was roughly 18 fold.
